Data taken from patent US8916550B2, “Compounds for modulating TRPV3 function” (Hydra Biosciences, Inc., priority 2005, dated 2014).

Columns and labels:
[1] = system: Male Holtzman rats, thermal injury; conditions: Table B comparators; based on our data as well as data available in the literature; cited from earlier work
[2] = system: Male Holtzmann rats, intraplantar formalin; conditions: Table B comparators; based on our data as well as data available in the literature; cited from earlier work
[3] = system: rats, carrageenan-injected hindpaw; conditions: Table B comparators; based on our data as well as data available in the literature; cited from earlier work
[4] = system: rats, CFA injected hindpaw; conditions: Table B comparators; based on our data as well as data available in the literature; cited from earlier work
[5] = system: Male Holtzman rats, thermal injury; experiment: Thermal injury model, thermal escape latency (Hargreaves); assay type: in vivo, rat
Protocol: The thermal injury model was used to evaluate the effectiveness of an exemplary TRPV3 inhibitor in the treatment of nociceptive pain. FIG. 1 provides a schematic representation of the protocol used to evaluate a TRPV3 inhibitor in the thermal injury model.
(§1) Briefly, the following protocol was followed. Male Holtzman rats (approximately 300 grams) were tested on thermal escape using a Hargreaves type apparatus. Under light anesthesia, a thermal injury (52° C. for 45 seconds) was applied to one heel. The animals were tested for thermal escape latency of the injured and uninjured paw before and at 30, 60, 80 and 120 minutes after injury. Drug (a TRPV3 inhibitor or morphine) or vehicle (0.5% methylcellulose) was administered after the baseline measurement and approximately 15-20 minutes prior to the thermal injury. In addition to the escape latency measurement, behavioral observations were made throughout the experiment.

[6] = system: Male Holtzman rats; experiment: Behavioral deficits / side effects observed in thermal injury experiment (animals affected of n); assay type: in vivo, rat; conditions: for Blistered paw / Catalepsy / Corneal response / Exopthalmos / Pinna response / Spontaneous agitation / Tactile allodynia: 10 mg/kg
Protocol: as §1
Table A provides a comparison of the side-effects observed in rats following administration of TRPV3 inhibitor 64, at varying concentrations, versus the side-effects observed in rats administered 10 mg/kg of morphine. Side-effects of rats administered 0.5% methycellulouse were observed and served as a control.

[7] = system: Male Holtzman rats; conditions: Table B comparators; based on our data as well as data available in the literature; cited from earlier work

O=C(NCc1ccc(C(F)(F)F)cc1)Nc1cccc2cnccc12 [TRPV1 Antagonist]
Acute thermal injury [1]: Effective
Formalin Model [2]: Ineffective
Carrageenan Model [3]: Effective
CFA Model [4]: Effective

CN1CC[C@]23c4c5ccc(O)c4O[C@H]2[C@@H](O)C=C[C@H]3[C@H]1C5 [Morphine, morphine]
Effect on escape latency of injured and un-injured paw ([5]; morphine (FIG. 4)): does have an effect on both the injured and un-injured paw
Thermal escape latency after treatment ([5]; morphine, FIG. 4 legend): elevated above the baseline
Blistered paw ([6]; Pre Injury Observation): 0 of 7
Catalepsy ([6]; Pre Injury Observation): 0 of 7
Corneal response ([6]; Pre Injury Observation): 0 of 7
Exopthalmos ([6]; Pre Injury Observation): 0 of 7
Pinna response ([6]; Pre Injury Observation): 0 of 7
Spontaneous agitation ([6]; Pre Injury Observation): 0 of 7
Tactile allodynia ([6]; Pre Injury Observation): 0 of 7
Blistered paw ([6]; t = 30 min): 0 of 7
Catalepsy ([6]; t = 30 min): 4 of 7
Corneal response ([6]; t = 30 min): 0 of 7
Exopthalmos ([6]; t = 30 min): 6 of 7
Pinna response ([6]; t = 30 min): 5 of 7
Spontaneous agitation ([6]; t = 30 min): 0 of 7
Tactile allodynia ([6]; t = 30 min): 0 of 7
Blistered paw ([6]; t = 60 min): 0 of 7
Catalepsy ([6]; t = 60 min): 3 of 7
Corneal response ([6]; t = 60 min): 0 of 7
Exopthalmos ([6]; t = 60 min): 6 of 7
Pinna response ([6]; t = 60 min): 2 of 7
Spontaneous agitation ([6]; t = 60 min): 0 of 7
Tactile allodynia ([6]; t = 60 min): 0 of 7
Blistered paw ([6]; t = 90 min): 0 of 7
Catalepsy ([6]; t = 90 min): 1 of 7
Corneal response ([6]; t = 90 min): 0 of 7
Exopthalmos ([6]; t = 90 min): 6 of 7
Pinna response ([6]; t = 90 min): 0 of 7
Spontaneous agitation ([6]; t = 90 min): 0 of 7
Tactile allodynia ([6]; t = 90 min): 0 of 7
Blistered paw ([6]; t = 120 min): 0 of 7
Catalepsy ([6]; t = 120 min): 0 of 7
Corneal response ([6]; t = 120 min): 0 of 7
Exopthalmos ([6]; t = 120 min): 0 of 7
Pinna response ([6]; t = 120 min): 0 of 7
Spontaneous agitation ([6]; t = 120 min): 0 of 7
Tactile allodynia ([6]; t = 120 min): 0 of 7
Side-effects of administration ([6]; morphine 10 mg/kg): exopthalmos (bulging eyes), catalepsy (a near catatonic state), and the pinna response
Acute thermal injury [1]: Effective
Carrageenan Model [3]: Effective
CFA Model [4]: Effective
Non-narcotic [7]: Narcotic
